IC50 and Ki data for two compounds are collected here from BindingDB's records for PubMed 33764065 (Niddk, 2021).

Molecules are shown by their SMILES. pIC50, pKi: −log10 of the molar value.

The nature of assay [1]: Inhibition of human non pancreatic secretory phospholipase A2 incubated for 30 mins by plate reader analysis.
A short description of assay [2]: Binding affinity to bovine brain membrane BzR assessed as inhibition constant.

For `COc1ccc2c(c1)c(CC(=O)O)c(C)n2Cc1ccccc1` [1-BENZYL-5-METHOXY-2-METHYL-1H-INDOL-3-YL)-ACETIC ACID], in assay [1], the pIC50 (usually the IC50 on a negative log10 scale, so that one unit is a factor of ten) was 4.87.
Turning to `O=C(NCc1ccccc1)C(=O)c1c[nH]c2ccc([N+](=O)[O-])cc12` [N-benzyl-2-(5-nitro-1H-indol-3-yl)-2-oxoacetamide], in assay [2], the pKi (commonly the Ki on a negative log10 scale, so that one unit is a factor of ten) was 6.93.
